The target of assay [1] is T1, Cbl-b (Homo sapiens, UniProt Q13191).
T1 construct: Cbl-b-HiBit KI Jurkat Cells were purchased from Promega; host or cells: Cbl-b-HiBiT knock-in Jurkat cells
Put plainly: Cbl-b Degradation Method A (FACS, anti-Cbl-b antibody staining). The assay is classed as cell-based. The conditions noted are these: Cbl-b-HiBit KI Jurkat Cells, incubated at least 20 hours; for DC50: half maximal degradation, read-out: Cbl-b Degredation Method A IC50; for Dmax: Jurkat, maximum degradation observed, read-out: Cbl-b Degredation Method A Dmax (%). The essentials:
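Cbl-b-HiBit KI Jurkat cells treated with compound for at least 20 h at 37 °C, then fixed, permeabilized and stained with anti-Cbl-b antibody plus anti-rabbit AF488 secondary. Cbl-b levels read by FACS; DC50 and Dmax (percent of control) derived.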
A general note: The HiBiT peptide binds its large partner to form an active luciferase.

The target in assay [2] is T1, Cbl-b. As to the kind of experiment: Cbl-b Degradation Method B (Nano-Glo HiBiT lytic detection). The assay is classed as cell-based. Particulars: Cbl-b-HiBit KI Jurkat Cells, incubated at least 6-24 hours; for DC50: half maximal degradation, read-out: Cbl-b Degredation Method B IC50; for Dmax: maximum degradation observed, read-out: Cbl-b Degredation Method B Dmax (%). A digest of the protocol: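 Cbl-b-HiBiT knock-in Jurkat cells (20,000/well) were treated after ~24 h plating with an 11-point 1:3 series for 6-24 h at 37° C. Remaining Cbl-b measured by Nano-Glo HiBiT lytic luminescence. DC50 and Dmax expressed as % of control.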

The structures appear in SMILES notation. Bounds are passed on as bounds.

One may read the Dmax as the greatest extent of degradation seen.

T1 sequence (Q13191 whole entry): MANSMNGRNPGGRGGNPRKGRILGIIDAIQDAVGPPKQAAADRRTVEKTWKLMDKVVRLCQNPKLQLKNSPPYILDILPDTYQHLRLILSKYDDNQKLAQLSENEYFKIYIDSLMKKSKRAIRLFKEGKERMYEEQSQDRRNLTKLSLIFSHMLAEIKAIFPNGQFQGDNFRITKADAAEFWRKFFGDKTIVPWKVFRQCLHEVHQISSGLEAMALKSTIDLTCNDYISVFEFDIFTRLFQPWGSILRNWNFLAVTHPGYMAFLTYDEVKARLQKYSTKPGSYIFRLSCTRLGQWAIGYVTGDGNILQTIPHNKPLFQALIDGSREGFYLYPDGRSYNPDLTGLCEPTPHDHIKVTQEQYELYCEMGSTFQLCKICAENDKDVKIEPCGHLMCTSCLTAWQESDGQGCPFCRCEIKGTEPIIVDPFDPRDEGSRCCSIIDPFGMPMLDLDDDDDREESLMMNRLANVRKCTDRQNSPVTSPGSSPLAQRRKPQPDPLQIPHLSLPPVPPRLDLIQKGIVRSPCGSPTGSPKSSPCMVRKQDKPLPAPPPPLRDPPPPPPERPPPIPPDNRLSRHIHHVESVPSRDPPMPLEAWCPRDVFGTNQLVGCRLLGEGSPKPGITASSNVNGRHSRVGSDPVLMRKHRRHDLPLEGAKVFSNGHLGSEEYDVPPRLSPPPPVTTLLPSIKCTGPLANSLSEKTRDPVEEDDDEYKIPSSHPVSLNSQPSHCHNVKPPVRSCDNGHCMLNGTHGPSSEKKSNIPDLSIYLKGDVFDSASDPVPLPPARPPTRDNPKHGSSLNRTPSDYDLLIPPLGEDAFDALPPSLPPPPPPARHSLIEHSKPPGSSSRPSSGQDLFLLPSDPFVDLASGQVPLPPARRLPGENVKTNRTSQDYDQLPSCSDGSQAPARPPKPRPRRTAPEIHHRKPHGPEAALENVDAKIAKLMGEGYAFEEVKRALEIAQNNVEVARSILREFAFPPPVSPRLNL

Take `Cn1cnnc1C(c1cccc(N2Cc3c(cc(CN4CCC[C@H](CN5CCN(C[C@H]6CC[C@@H](OC7CCN(c8ccc9c(c8F)CN(C8CCC(=O)NC8=O)C9=O)CC7)CC6)CC5)C4)cc3C(F)(F)F)C2=O)c1)C1CCC1` (stereo partly drawn) [Example 158, 3-[4-fluoro-1-oxo-5-(4-{[(1r,4r)-4-[(4-{[(3S)-1-[(2-{3-[cyclobutyl(4-methyl-4H-1,2,4-triazol-3-yl)methyl]phenyl}-3-oxo-7-(trifluoromethyl)-2,3-dihydro-1H-isoindol-5-yl)methyl]piperidin-3-yl]methyl}piperazin-1-yl)methyl]cyclohexyl]oxy}piperidin-1-yl)-2,3-dihydro-1H-isoindol-2-yl]piperidine-2,6-dione]: on Cbl-b [1], the DC50 is less than 5 nM and the Dmax is greater than 70%. Further, at Cbl-b [2], the DC50 is less than 5 nM and the maximal degradation (Dmax) lay in the range of 35 to 70%.
As for `Cn1cnnc1[C@]1(c2cccc(N3Cc4c(cc(CN5CCC[C@H](CN6CCN(C[C@H]7CC[C@@H](OC8CCN(c9ccc%10c(c9F)CN(C9CCC(=O)NC9=O)C%10=O)CC8)CC7)CC6)C5)cc4C(F)(F)F)C3=O)c2)C[C@H](C)C1` (stereo partly drawn) [Example 159, 3-[4-fluoro-1-oxo-5-(4-{[(1r,4r)-4-[(4-{[(3S)-1-[(3-oxo-2-{3-[(1s,3r)-3-methyl-1-(4-methyl-4H-1,2,4-triazol-3-yl)cyclobutyl]phenyl}-7-(trifluoromethyl)-2,3-dihydro-1H-isoindol-5-yl)methyl]piperidin-3-yl]methyl}piperazin-1-yl)methyl]cyclohexyl]oxy}piperidin-1-yl)-2,3-dihydro-1H-isoindol-2-yl]piperidine-2,6-dione], the DC50 at Cbl-b [1] and on Cbl-b [2] was less than 5 nM each time. For the same compound, the Dmax is greater than 70% on Cbl-b [1] and 35 to 70% at Cbl-b [2].
On to `CC1c2nc(N3CCC(O[C@H]4CC[C@@H](CN5CCN(C[C@H]6CCCN(Cc7cc8c(c(C(F)(F)F)c7)CN(c7cccc(C9(Cc%10nncn%10C)COC9)c7)C8=O)C6)CC5)CC4)CC3)ccc2C(=O)N1C1CCC(=O)NC1=O` (stereo partly drawn) [Example 160, 3-[7-methyl-5-oxo-2-(4-{[(1r,4r)-4-[(4-{[(3S)-1-{[2-(3-{3-[(4-methyl-4H-1,2,4-triazol-3-yl)methyl]oxetan-3-yl}phenyl)-3-oxo-7-(trifluoromethyl)-2,3-dihydro-1H-isoindol-5-yl]methyl}piperidin-3-yl]methyl}piperazin-1-yl)methyl]cyclohexyl]oxy}piperidin-1-yl)-5H,6H,7H-pyrrolo[3,4-b]pyridin-6-yl]piperidine-2,6-dione], for which, on Cbl-b [1], the DC50 was less than 5 nM and the Dmax lay within 35 to 70%. Further, on Cbl-b [2], the DC50 was less than 5 nM and the Dmax lay within 35 to 70%.
For the compound `Cn1cnnc1C1(c2cccc(N3Cc4c(cc(CN5CCC[C@H](CN6CCN(C[C@H]7CC[C@@H](OC8CCN(c9ccc%10c(c9F)CN(C9CCC(=O)NC9=O)C%10=O)CC8)CC7)CC6)C5)cc4C(F)(F)F)C3=O)c2)COC1` (stereo partly drawn) [Example 161, 3-[4-fluoro-1-oxo-5-(4-{[(1r,4r)-4-[(4-{[(3S)-1-[(2-{3-[3-(4-methyl-4H-1,2,4-triazol-3-yl)oxetan-3-yl]phenyl}-3-oxo-7-(trifluoromethyl)-2,3-dihydro-1H-isoindol-5-yl)methyl]piperidin-3-yl]methyl}piperazin-1-yl)methyl]cyclohexyl]oxy}piperidin-1-yl)-2,3-dihydro-1H-isoindol-2-yl]piperidine-2,6-dione], at Cbl-b [1], the DC50 lay in the range of 5 to 50 nM and the Dmax was less than 35%. Besides, at Cbl-b [2], the DC50 was greater than 500 nM.
For the compound `Cn1cnnc1CC1(c2cccc(N3Cc4c(cc(CN5CCC[C@H](CN6CCN(C[C@H]7CC[C@@H](OC8CCN(c9ccc%10c(c9F)CN(C9CCC(=O)NC9=O)C%10=O)CC8)CC7)CC6)C5)cc4C(F)(F)F)C3=O)c2)CC1` (stereo partly drawn) [Example 162, 3-[4-fluoro-1-oxo-5-(4-{[(1r,4r)-4-[(4-{[(3S)-1-{[2-(3-{1-[(4-methyl-4H-1,2,4-triazol-3-yl)methyl]cyclopropyl}phenyl)-3-oxo-7-(trifluoromethyl)-2,3-dihydro-1H-isoindol-5-yl]methyl}piperidin-3-yl]methyl}piperazin-1-yl)methyl]cyclohexyl]oxy}piperidin-1-yl)-2,3-dihydro-1H-isoindol-2-yl]piperidine-2,6-dione], on Cbl-b [1], the DC50 is less than 5 nM and the Dmax is greater than 70%. Also, at Cbl-b [2], the DC50 is less than 5 nM and the Dmax was greater than 70%.
Consider `COc1c(N2CCC(O[C@H]3CC[C@@H](CN4CCN(C[C@H]5CCCN(Cc6cc7c(c(C(F)(F)F)c6)CN(c6cccc(C8(Cc9nncn9C)COC8)c6)C7=O)C5)CC4)CC3)CC2)ccc2c1CN(C1CCC(=O)NC1=O)C2=O` (stereo partly drawn) [Example 163, 3-[4-methoxy-1-oxo-5-(4-{[(1r,4r)-4-[(4-{[(3S)-1-{[2-(3-{3-[(4-methyl-4H-1,2,4-triazol-3-yl)methyl]oxetan-3-yl}phenyl)-3-oxo-7-(trifluoromethyl)-2,3-dihydro-1H-isoindol-5-yl]methyl}piperidin-3-yl]methyl}piperazin-1-yl)methyl]cyclohexyl]oxy}piperidin-1-yl)-2,3-dihydro-1H-isoindol-2-yl]piperidine-2,6-dione], for which, at Cbl-b [1], the DC50 was less than 5 nM and the Dmax was greater than 70%. Besides, on Cbl-b [2], the DC50 was less than 5 nM and the Dmax is greater than 70%.
In the case of `Cn1cnnc1CC1(c2cccc(N3Cc4c(cc(CN5CCC[C@H](CN6CCN(C[C@H]7CC[C@@H](OC8CCN(c9ccc%10c(c9Cl)CN(C9CCC(=O)NC9=O)C%10=O)CC8)CC7)CC6)C5)cc4C(F)(F)F)C3=O)c2)COC1` (stereo partly drawn) [Example 165, 3-[4-chloro-1-oxo-5-(4-{[(1r,4r)-4-[(4-{[(3S)-1-{[2-(3-{3-[(4-methyl-4H-1,2,4-triazol-3-yl)methyl]oxetan-3-yl}phenyl)-3-oxo-7-(trifluoromethyl)-2,3-dihydro-1H-isoindol-5-yl]methyl}piperidin-3-yl]methyl}piperazin-1-yl)methyl]cyclohexyl]oxy}piperidin-1-yl)-2,3-dihydro-1H-isoindol-2-yl]piperidine-2,6-dione], at Cbl-b [1], the DC50 was less than 5 nM and the greatest degradation seen (Dmax) was greater than 70%. For the same compound, on Cbl-b [2], the DC50 is less than 5 nM and the Dmax is greater than 70%.
Consider `CC1CN(C[C@H]2CC[C@@H](OC3CCN(c4ccc5c(c4F)CN(C4CCC(=O)NC4=O)C5=O)CC3)CC2)CCN1C[C@H]1CCCN(Cc2cc3c(c(C(F)(F)F)c2)CN(c2cccc(C4(Cc5nncn5C)COC4)c2)C3=O)C1` (stereo partly drawn) [Example 166, 3-[4-fluoro-1-oxo-5-(4-{[(1r,4r)-4-[(3-methyl-4-{[(3S)-1-{[2-(3-{3-[(4-methyl-4H-1,2,4-triazol-3-yl)methyl]oxetan-3-yl}phenyl)-3-oxo-7-(trifluoromethyl)-2,3-dihydro-1H-isoindol-5-yl]methyl}piperidin-3-yl]methyl}piperazin-1-yl)methyl]cyclohexyl]oxy}piperidin-1-yl)-2,3-dihydro-1H-isoindol-2-yl]piperidine-2,6-dione], for which, at Cbl-b [1], the DC50 is less than 5 nM and the Dmax is greater than 70%. In addition, at Cbl-b [2], the DC50 is less than 5 nM and the Dmax was greater than 70%.
In the case of `Cn1cnnc1C[C@]1(c2cccc(N3Cc4c(cc(CN5CCN(C[C@H]6CC[C@H](OC7CCN(c8ccc9c(c8F)CN(C8CCC(=O)NC8=O)C9=O)CC7)CC6)CC5)cc4C(F)(F)F)C3=O)c2)C[C@H](C#N)C1` (stereo partly shown) [Example 167, (1r,3r)-3-[(4-methyl-4H-1,2,4-triazol-3-yl)methyl]-3-(3-{1-oxo-6-[(4-{[(1r,4r)-4-({1-[2-(2,6-dioxopiperidin-3-yl)-4-fluoro-1-oxo-2,3-dihydro-1H-isoindol-5-yl]piperidin-4-yl}oxy)cyclohexyl]methyl}piperazin-1-yl)methyl]-4-(trifluoromethyl)-2,3-dihydro-1H-isoindol-2-yl}phenyl)cyclobutane-1-carbonitrile], the DC50 on Cbl-b [1] and on Cbl-b [2] was less than 5 nM each time. Also, the values for the Dmax at Cbl-b [1] and at Cbl-b [2] were greater than 70% and 35 to 70%, respectively.
Take `COc1c(N2CCC(O[C@H]3CC[C@H](CN4CCC5(CC4)CN(c4cc6c(c(C(F)(F)F)c4)CN(c4cccc(C7(Cc8nncn8C)COC7)c4)C6=O)C5)CC3)CC2)ccc2c1CN(C1CCC(=O)NC1=O)C2=O` (stereo partly shown) [Example 169, 3-[4-methoxy-1-oxo-5-(4-{[(1r,4r)-4-({2-[2-(3-{3-[(4-methyl-4H-1,2,4-triazol-3-yl)methyl]oxetan-3-yl}phenyl)-3-oxo-7-(trifluoromethyl)-2,3-dihydro-1H-isoindol-5-yl]-2,7-diazaspiro[3.5]nonan-7-yl}methyl)cyclohexyl]oxy}piperidin-1-yl)-2,3-dihydro-1H-isoindol-2-yl]piperidine-2,6-dione]: the figures for the DC50 at Cbl-b [1] and at Cbl-b [2] were 5 to 50 nM and less than 5 nM, respectively. The Dmax at Cbl-b [1] and at Cbl-b [2] was greater than 70% in each case.
As for `Cc1cc(N2CCC(CN3CCC4(CC3)CN(c3cc5c(c(C(F)(F)F)c3)CN(c3cccc([C@]6(Cc7nncn7C)C[C@@H](C#N)C6)c3)C5=O)C4)CC2)c(F)c2c1C(=O)N(C1CCC(=O)NC1=O)C2` (stereo partly shown) [Example 171, (1r,3r)-3-(3-{6-[7-({1-[2-(2,6-dioxopiperidin-3-yl)-4-fluoro-7-methyl-1-oxo-2,3-dihydro-1H-isoindol-5-yl]piperidin-4-yl}methyl)-2,7-diazaspiro[3.5]nonan-2-yl]-1-oxo-4-(trifluoromethyl)-2,3-dihydro-1H-isoindol-2-yl}phenyl)-3-[(4-methyl-4H-1,2,4-triazol-3-yl)methyl]cyclobutane-1-carbonitrile], on Cbl-b [1], the DC50 is 5 to 50 nM and the Dmax is greater than 70%. Moreover, on Cbl-b [2], the DC50 was less than 5 nM and the Dmax is 35 to 70%.

For the origin of these results see patent publication US20260184710A1, “CASITAS B-LINEAGE LYMPHOMA PROTOONCOGENE B (CBL-B) DEGRADING COMPOUNDS AND ASSOCIATED METHODS OF USE” (Arvinas Operations, Inc., priority 2022, published 2026).
